In patent US12679878B2, “CRF2 receptor agonists and their use in therapy” (SANOFI, priority 2020, dated 2026):
Starred links: 1 amine or outer side, 2 acyl side, 3 side chain; linkers in the order of their positions; H or OH if unused. Non-standard residues stand in square brackets, D forms with d. Residues, ends and D or L forms follow the SMILES beside them. Groups on a side chain read outwards from the residue. No end group written: not given here. *: point of attachment. C18 diacid = O=C(O)CCCCCCCCCCCCCCCCC(=O)*; C16 diacid = O=C(O)CCCCCCCCCCCCCCC(=O)*; γGlu = O=C(O)[C@H](CCC(=O)[*:2])N[*:1]; AEEA = NCCOCCOCC(=O)O; Aib = CC(C)(N)C(=O)O

B1: peptide of SEQ ID NO: 187 (peptide)
peptide: IVLSLD[dV]PIKLK([γGlu-C16 diacid])QILLKQERQK[Aib]QREQAEKNKQILAQV-NH2
modifications: N-terminus assumed
SMILES: CC[C@H](C)[C@H](N)C(=O)N[C@H](C(=O)N[C@@H](CC(C)C)C(=O)N[C@@H](CO)C(=O)N[C@@H](CC(C)C)C(=O)N[C@@H](CC(=O)O)C(=O)N[C@@H](C(=O)N1CCC[C@H]1C(=O)N[C@H](C(=O)N[C@@H](CCCCN)C(=O)N[C@@H](CC(C)C)C(=O)N[C@@H](CCCCNC(=O)CC[C@H](NC(=O)CCCCCCCCCCCCCCC(=O)O)C(=O)O)C(=O)N[C@@H](CCC(N)=O)C(=O)N[C@H](C(=O)N[C@@H](CC(C)C)C(=O)N[C@@H](CC(C)C)C(=O)N[C@@H](CCCCN)C(=O)N[C@@H](CCC(N)=O)C(=O)N[C@@H](CCC(=O)O)C(=O)N[C@@H](CCCNC(=N)N)C(=O)N[C@@H](CCC(N)=O)C(=O)N[C@@H](CCCCN)C(=O)NC(C)(C)C(=O)N[C@@H](CCC(N)=O)C(=O)N[C@@H](CCCNC(=N)N)C(=O)N[C@@H](CCC(=O)O)C(=O)N[C@@H](CCC(N)=O)C(=O)N[C@@H](C)C(=O)N[C@@H](CCC(=O)O)C(=O)N[C@@H](CCCCN)C(=O)N[C@@H](CC(N)=O)C(=O)N[C@@H](CCCCN)C(=O)N[C@@H](CCC(N)=O)C(=O)N[C@H](C(=O)N[C@@H](CC(C)C)C(=O)N[C@@H](C)C(=O)N[C@@H](CCC(N)=O)C(=O)N[C@H](C(N)=O)C(C)C)[C@@H](C)CC)[C@@H](C)CC)[C@@H](C)CC)C(C)C)C(C)C

Assays:
[1] = Effect on blood pressure, telemetry (Example 17); type: in vivo; settings: Sprague Dawley rats, 0.1 mg/kg SC
Protocol: The effect of the compounds on blood pressure was determined in telemetry studies in Sprague Dawley rats at a dosage of 0.1 mg/kg SC.
The rats were previously implanted with a telemetry device (DSI, Saint-Paul, USA, HD-S10, HD-S11 or HD S21) and allowed to recover for a minimum period of 2 weeks before treatment with vehicle or the different peptides. Blood pressure (BP) was recorded through a catheter inserted into the abdominal aorta. The device body was placed in the abdomen. At the end of surgery, animals were placed in individual cages until the end of the study.
Pressure signals were recorded for one hour before the treatment (basal period). Thereafter, the subcutaneous administration of the test compound or its vehicle was performed, under continuous recording of the signal over a 48-hour period. Data acquisition was performed using Hem 4.3 acquisition software (Notocord®, Le Pecq, France) connected to the telemetry device. Hemodynamic parameters were recorded during a […] before treatment and every 4-hour period following subcutaneous administration over 48 hours.
Investigated parameters (calculated from BP signal) were Heart Rate (HR) in beats per minute (bpm), Diastolic and Systolic Blood Pressure (DBP) in mmHg, and Mean Blood Pressure (MBP) in mmHg.
Data from Hem were manipulated using Microsoft Excel®. For each parameter, a basal value was determined as the average calculated over a 1-hour period during the pre-treatment sequence, and the values post treatment were calculated over 4-hour periods ([0-4], [4-8], [8-12], [12-16], [16-20], [20-24], [24-28], [32-36], [36-40], [40-44] and [44-48] hours) covering the 48-hour period following administration.
Representative data are presented in Table 15 below, in which “n” represents the number of animals for which individual values were obtained and “Duration” indicates the last time point for which a significant effect on BP was still seen: Table 15

[2] = biological target: human corticotropin-releasing factor 2α receptor (CRF2α receptor) (human), Q13324; assay: cell-based or functional assay
[3] = biological target: human corticotropin-releasing factor 2α (CRF2α receptor) (human), Q13324; assay: cell-based or functional assay
human corticotropin-releasing factor 2α (CRF2α receptor) (human), Q13324, sequence (Q13324 20-411): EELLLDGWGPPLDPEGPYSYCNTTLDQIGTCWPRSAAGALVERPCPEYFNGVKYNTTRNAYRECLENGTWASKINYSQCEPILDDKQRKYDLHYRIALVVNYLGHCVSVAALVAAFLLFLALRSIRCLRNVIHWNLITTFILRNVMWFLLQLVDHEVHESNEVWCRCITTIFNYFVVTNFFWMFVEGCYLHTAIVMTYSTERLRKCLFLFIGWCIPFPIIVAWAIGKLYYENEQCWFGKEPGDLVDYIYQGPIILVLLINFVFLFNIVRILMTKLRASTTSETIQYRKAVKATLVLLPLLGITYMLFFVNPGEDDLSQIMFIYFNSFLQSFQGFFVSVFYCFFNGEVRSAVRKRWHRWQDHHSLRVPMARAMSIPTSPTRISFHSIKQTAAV

human corticotropin-releasing factor 2α receptor (CRF2α receptor) (human), Q13324, sequence (Q13324 20-411): as above

CRF2 EC50 (cAMP, HTRF) [2]	EC50 [nM], 0% HSA (cAMP, HTRF) [3]	Molecule	Duration (h): last time point for which a significant effect on BP was still seen [1]	Effect on Systolic Pressure % change from baseline 8 h [1]	Effect on Systolic Pressure % change from baseline 24 h [1]
		CC[C@H](C)[C@H](N)C(=O)N[C@H](C(=O)N[C@@H](CC(C)C)C(=O)N[C@@H](CO)C(=O)N[C@@H](CC(C)C)C(=O)N[C@@H](CC(=O)O)C(=O)N[C@@H](C(=O)N1CCC[C@H]1C(=O)N[C@H](C(=O)N[C@@H](CCCCN)C(=O)N[C@@H](CC(C)C)C(=O)N[C@@H](CCCCNC(=O)COCCOCCNC(=O)COCCOCCNC(=O)CC[C@H](NC(=O)CCCCCCCCCCCCCCCCC(=O)O)C(=O)O)C(=O)N[C@@H](CCC(N)=O)C(=O)N[C@H](C(=O)N[C@@H](CC(C)C)C(=O)N[C@@H](CC(C)C)C(=O)N[C@@H](CCC(=O)O)C(=O)N[C@@H](CCC(N)=O)C(=O)N[C@@H](C)C(=O)N[C@@H](CCCNC(=N)N)C(=O)N[C@@H](CCC(N)=O)C(=O)N[C@@H](CCCCN)C(=O)NC(C)(C)C(=O)N[C@@H](CCC(N)=O)C(=O)N[C@@H](CCCNC(=N)N)C(=O)N[C@@H](CCC(=O)O)C(=O)N[C@@H](CCC(N)=O)C(=O)N[C@@H](C)C(=O)N[C@@H](CCC(=O)O)C(=O)N[C@@H](CCCCN)C(=O)N[C@@H](CC(N)=O)C(=O)N[C@@H](CCCCN)C(=O)N[C@@H](CCCNC(=N)N)C(=O)N[C@H](C(=O)N[C@@H](CC(C)C)C(=O)N[C@@H](CCC(=O)O)C(=O)N[C@@H](CCCNC(=N)N)C(=O)N[C@H](C(N)=O)C(C)C)[C@@H](C)CC)[C@@H](C)CC)[C@@H](C)CC)C(C)C)C(C)C [SEQ ID NO: 142, IVLSLDvPIKLK*QILLEQARQKAibQREQAEKNKRILERV-NH2] (H-IVLSLD[dV]PIKLK([AEEA-AEEA-γGlu-C18 diacid])QILLEQARQK[Aib]QREQAEKNKRILERV-NH2)	30 h	−22.2%	−6.5%
		CC[C@H](C)[C@H](N)C(=O)N[C@H](C(=O)N[C@@H](CC(C)C)C(=O)N[C@@H](CO)C(=O)N[C@@H](CC(C)C)C(=O)N[C@@H](CC(=O)O)C(=O)N[C@@H](C(=O)N1CCC[C@H]1C(=O)N[C@H](C(=O)N[C@@H](CCCCN)C(=O)N[C@@H](CC(C)C)C(=O)N[C@@H](CCCCNC(=O)COCCOCCNC(=O)COCCOCCNC(=O)CC[C@H](NC(=O)CCCCCCCCCCCCCCCCC(=O)O)C(=O)O)C(=O)N[C@@H](CCC(N)=O)C(=O)N[C@H](C(=O)N[C@@H](CC(C)C)C(=O)N[C@@H](CC(C)C)C(=O)N[C@@H](CCCCN)C(=O)N[C@@H](CCC(N)=O)C(=O)N[C@@H](CCC(=O)O)C(=O)N[C@@H](CCCNC(=N)N)C(=O)N[C@@H](CCC(N)=O)C(=O)N[C@@H](CCCCN)C(=O)N[C@@H](CCCCN)C(=O)NC(C)(C)C(=O)N[C@@H](CCCNC(=N)N)C(=O)N[C@@H](CCC(=O)O)C(=O)N[C@@H](CCC(N)=O)C(=O)N[C@@H](C)C(=O)N[C@@H](CCC(=O)O)C(=O)N[C@H](C(=O)N[C@@H](CC(N)=O)C(=O)N[C@@H](CCCCN)C(=O)N[C@@H](CCCNC(=N)N)C(=O)N[C@H](C(=O)N[C@@H](CC(C)C)C(=O)N[C@@H](CCC(=O)O)C(=O)N[C@@H](CCCNC(=N)N)C(=O)N[C@H](C(N)=O)C(C)C)[C@@H](C)CC)[C@@H](C)O)[C@@H](C)CC)[C@@H](C)CC)C(C)C)C(C)C [SEQ ID NO: 149, IVLSLDvPIKLK*QILLKQERQKKAibREQAETNKRILERV-NH2] (H-IVLSLD[dV]PIKLK([AEEA-AEEA-γGlu-C18 diacid])QILLKQERQKK[Aib]REQAETNKRILERV-NH2)	30 h	−11.5%	−2.5%
		CC[C@H](C)[C@H](N)C(=O)N[C@H](C(=O)N[C@@H](CC(C)C)C(=O)N[C@@H](CO)C(=O)N[C@@H](CC(C)C)C(=O)N[C@@H](CC(=O)O)C(=O)N[C@@H](C(=O)N1CCC[C@H]1C(=O)N[C@H](C(=O)NCC(=O)N[C@@H](CC(C)C)C(=O)N[C@@H](CCCCNC(=O)COCCOCCNC(=O)COCCOCCNC(=O)CC[C@H](NC(=O)CCCCCCCCCCCCCCCCC(=O)O)C(=O)O)C(=O)N[C@@H](CCC(N)=O)C(=O)N[C@H](C(=O)N[C@@H](CC(C)C)C(=O)N[C@@H](CC(C)C)C(=O)N[C@@H](CCCCN)C(=O)N[C@@H](CCC(N)=O)C(=O)N[C@@H](CCC(=O)O)C(=O)N[C@@H](CCCNC(=N)N)C(=O)N[C@@H](CCC(N)=O)C(=O)N[C@@H](CCCCN)C(=O)N[C@@H](CCCCN)C(=O)NC(C)(C)C(=O)N[C@@H](CCCNC(=N)N)C(=O)N[C@@H](CCC(=O)O)C(=O)N[C@@H](CCC(N)=O)C(=O)N[C@@H](C)C(=O)N[C@@H](CCC(=O)O)C(=O)N[C@@H](CCCCN)C(=O)N[C@@H](CC(N)=O)C(=O)N[C@@H](CCCCN)C(=O)N[C@@H](CCCNC(=N)N)C(=O)N[C@H](C(=O)N[C@@H](CC(C)C)C(=O)N[C@@H](CCC(=O)O)C(=O)N[C@@H](CCCNC(=N)N)C(=O)N[C@H](C(N)=O)C(C)C)[C@@H](C)CC)[C@@H](C)CC)[C@@H](C)CC)C(C)C)C(C)C [SEQ ID NO: 151, IVLSLDvPIGLK*QILLKQERQKKAibREQAEKNKRILERV-NH2] (H-IVLSLD[dV]PIGLK([AEEA-AEEA-γGlu-C18 diacid])QILLKQERQKK[Aib]REQAEKNKRILERV-NH2)	28 h	−12.3%	−3.8%
		CC[C@H](C)[C@H](N)C(=O)N[C@H](C(=O)N[C@@H](CC(C)C)C(=O)N[C@@H](CO)C(=O)N[C@@H](CC(C)C)C(=O)N[C@@H](CC(=O)O)C(=O)N[C@H](C(=O)N1CCC[C@H]1C(=O)N[C@H](C(=O)N[C@@H](CCCCN)C(=O)N[C@@H](CC(C)C)C(=O)N[C@@H](CCCCNC(=O)COCCOCCNC(=O)COCCOCCNC(=O)CC[C@H](NC(=O)CCCCCCCCCCCCCCCCC(=O)O)C(=O)O)C(=O)N[C@@H](CCC(N)=O)C(=O)N[C@H](C(=O)N[C@@H](CC(C)C)C(=O)N[C@@H](CC(C)C)C(=O)N[C@@H](CCCCN)C(=O)N[C@@H](CCC(N)=O)C(=O)N[C@@H](CCC(=O)O)C(=O)N[C@@H](CCCNC(=N)N)C(=O)N[C@@H](CCC(N)=O)C(=O)N[C@@H](CCCCN)C(=O)N[C@@H](CCCCN)C(=O)NC(C)(C)C(=O)N[C@@H](CCCNC(=N)N)C(=O)N[C@@H](CCC(=O)O)C(=O)N[C@@H](CCC(N)=O)C(=O)N[C@@H](C)C(=O)N[C@@H](CCC(=O)O)C(=O)N[C@H](C(=O)N[C@@H](CC(N)=O)C(=O)N[C@@H](CCCCN)C(=O)N[C@@H](CCCNC(=N)N)C(=O)N[C@H](C(=O)N[C@@H](CC(C)C)C(=O)N[C@@H](CCC(=O)O)C(=O)N[C@@H](CCCNC(=N)N)C(=O)N[C@H](C(N)=O)C(C)C)[C@@H](C)CC)[C@@H](C)O)[C@@H](C)CC)[C@@H](C)CC)C(C)C)C(C)C [SEQ ID NO: 152, IVLSLDVPIKLK*QILLKQERQKKAibREQAETNKRILERV-NH2] (H-IVLSLDVPIKLK([AEEA-AEEA-γGlu-C18 diacid])QILLKQERQKK[Aib]REQAETNKRILERV-NH2)	20 h	−8.6%	−6.0%
0.44 nM	0.44 nM	B1			
